Measured values published in ChEMBL document CHEMBL3879908, “Pyrrolidinone carboxamide derivatives” (2014).

The compounds below were run against T1, Chemerin-like receptor 1 (Homo sapiens, UniProt Q99788) (assay: Displacement of [125I]-chemerin from ChemR23 (unknown origin) transfected in mouse BaF3 cells after 3 hrs by scintillation counting method).
T1 sequence (Q99788 whole entry): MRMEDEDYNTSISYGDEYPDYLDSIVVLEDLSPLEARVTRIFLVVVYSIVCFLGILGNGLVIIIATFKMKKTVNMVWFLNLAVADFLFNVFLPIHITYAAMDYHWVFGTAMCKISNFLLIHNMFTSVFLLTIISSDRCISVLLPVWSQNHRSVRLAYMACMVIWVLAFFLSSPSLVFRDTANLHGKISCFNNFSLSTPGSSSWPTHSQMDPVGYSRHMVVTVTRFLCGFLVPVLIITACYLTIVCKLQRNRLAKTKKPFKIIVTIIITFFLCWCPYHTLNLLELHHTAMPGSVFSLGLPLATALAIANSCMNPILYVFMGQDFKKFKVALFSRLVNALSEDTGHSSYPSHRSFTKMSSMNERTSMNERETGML
Format: cell-based

| Structure (SMILES) | IC50 |
| --- | --- |
| Cc1cccc(C)c1N1C[C@]2(C(=O)Nc3cc(C(F)(F)F)cc(C(F)(F)F)c3)CC[C@@H]2C1=O | ≤ 30 nM |
| Cc1cccc(C)c1N1C[C@]2(C(=O)Nc3cc(C(F)(F)F)cc(C(F)(F)F)c3)CC=CC[C@@H]2C1=O | 300 to 6000 nM |
| Cc1cccc(C)c1N1CC(C(=O)Nc2cc(C(F)(F)F)cc(C(F)(F)F)c2)(N(C)C)CC1=O (stereo not given) | ≤ 30 nM |
| Cc1cccc(C)c1N1CC(C(=O)Nc2cc(N3CCOCC3)cc(C(F)(F)F)c2)CC1=O (stereo not given) | 30 to 300 nM |
| Cc1cccc(C)c1N1CC2(C(=O)Nc3cc(C(F)(F)F)cc(C(F)(F)F)c3)COCCC2C1=O (stereo not given) | 300 to 6000 nM |
| Cc1cccc(C)c1N1CC2(C(=O)Nc3cc(C(F)(F)F)cc(C(F)(F)F)c3)CC2C1=O (stereo not given) | 300 to 6000 nM |
| Cc1cccc(C)c1N1CC2(C(=O)Nc3cc(C(F)(F)F)cc(C(F)(F)F)c3)COCC2C1=O (stereo not given) | 30 to 300 nM |
| CO[C@H]1CC2C(=O)N(c3c(C)cccc3C)CC2(C(=O)Nc2cc(C(F)(F)F)cc(C(F)(F)F)c2)C1 (stereo not given in full) | ≤ 30 nM |
| Cc1cccc(Cl)c1N1CC(C(=O)Nc2cc(C(F)(F)F)cc(C(F)(F)F)c2)CC1=O (stereo not given) | 30 to 300 nM |
| Cc1cc(F)cc(C)c1N1CC(C(=O)Nc2cc(C(F)(F)F)cc(C(F)(F)F)c2)CC1=O (stereo not given) | 30 to 300 nM |
| Cc1cccc(C)c1N1CC2(C(=O)Nc3cc(C(F)(F)F)cc(C(F)(F)F)c3)CCCC2C1=O (stereo not given) | ≤ 30 nM |
| Cc1cccc(C)c1N1CC2(C(=O)Nc3cc(C(F)(F)F)cc(C(F)(F)F)c3)C[C@@H](F)CC2C1=O (stereo not given in full) | 30 to 300 nM |
| Cc1cccc(C)c1N1C[C@](C(=O)Nc2cc(C(F)(F)F)cc(C(F)(F)F)c2)(N(C)C)CC1=O | ≤ 30 nM |
| Cc1ccc(C)c(N2CC(C(=O)Nc3cc(C(F)(F)F)cc(C(F)(F)F)c3)CC2=O)c1 (stereo not given) | 30 to 300 nM |
| Cc1cccc(C)c1N1CC(C(=O)Nc2cc(Cl)cc(C(F)(F)F)c2)CC1=O (stereo not given) | 30 to 300 nM |
| O=C(Nc1cc(C(F)(F)F)cc(C(F)(F)F)c1)C1CC(=O)N(c2ccccc2)C1 (stereo not given) | 300 to 6000 nM |
| Cc1ccc(N2CC(C(=O)Nc3cc(C(F)(F)F)cc(C(F)(F)F)c3)CC2=O)c(C)c1 (stereo not given) | 30 to 300 nM |
| CNC1(C(=O)Nc2cc(C(F)(F)F)cc(C(F)(F)F)c2)CC(=O)N(c2c(C)cccc2C)C1 (stereo not given) | ≤ 30 nM |
| Cc1cccc(C)c1N1CC(NC(C)C)(C(=O)Nc2cc(C(F)(F)F)cc(C(F)(F)F)c2)CC1=O (stereo not given) | ≤ 30 nM |

| Structure (SMILES) | IC50 |
| --- | --- |
| Cc1cccc(S(C)(=O)=O)c1N1CC(C(=O)Nc2cc(C(F)(F)F)cc(C(F)(F)F)c2)CC1=O (stereo not given) | 300 to 6000 nM |
| Cc1cccc(C)c1N1C[C@]2(C(=O)Nc3cc(C(F)(F)F)cc(C(F)(F)F)c3)OCC[C@@H]2C1=O | 30 to 300 nM |
| Cc1ccccc1N1CC(C(=O)Nc2cc(C(F)(F)F)cc(C(F)(F)F)c2)CC1=O (stereo not given) | 30 to 300 nM |
| Cc1cccc(C)c1N1C[C@@](C)(C(=O)Nc2cc(Cl)cc(Cl)c2)[C@H](C)C1=O | ≤ 30 nM |
| Cc1cccc(C)c1N1CC2(C(=O)Nc3cc(C(F)(F)F)cc(C(F)(F)F)c3)CC=CCC2C1=O (stereo not given) | ≤ 30 nM |
| Cc1cccc(C)c1N1C[C@]2(C(=O)Nc3cc(C(F)(F)F)cc(C(F)(F)F)c3)CCO[C@@H]2C1=O | ≤ 30 nM |
| CC(C)c1ccccc1N1CC(C(=O)Nc2cc(C(F)(F)F)cc(C(F)(F)F)c2)CC1=O (stereo not given) | 30 to 300 nM |
| Cc1cccc(C2CC2)c1N1CC(C(=O)Nc2cc(C(F)(F)F)cc(C(F)(F)F)c2)CC1=O (stereo not given) | ≤ 30 nM |
| CCc1ccccc1N1CC(C(=O)Nc2cc(C(F)(F)F)cc(C(F)(F)F)c2)CC1=O (stereo not given) | 30 to 300 nM |
| CO[C@@H]1CC2C(=O)N(c3c(C)cccc3C)CC2(C(=O)Nc2cc(C(F)(F)F)cc(C(F)(F)F)c2)C1 (stereo not given in full) | ≤ 30 nM |
| Cc1cccc(C)c1N1CC2(C(=O)Nc3cc(C(F)(F)F)cc(C(F)(F)F)c3)COC=CC2C1=O (stereo not given) | ≤ 30 nM |
| Cc1cccc(C)c1N1CC(C(=O)Nc2cc(C(F)(F)F)cc(C(F)(F)F)c2)(N2CCOCC2)CC1=O (stereo not given) | ≤ 30 nM |
| COc1cc(NC(=O)C2CC(=O)N(c3c(C)cccc3C)C2)cc(C(F)(F)F)c1 (stereo not given) | 30 to 300 nM |
| Cc1cccc(C)c1N1CC2(C(=O)Nc3cc(C(F)(F)F)cc(C(F)(F)F)c3)C[C@H](F)CC2C1=O (stereo not given in full) | ≤ 30 nM |
| COCCN(C)C[C@@]1(C(=O)Nc2cc(C(F)(F)F)cc(C(F)(F)F)c2)CN(c2c(C)cccc2C)C(=O)[C@H]1C | 30 to 300 nM |
| Cc1cccc(C)c1N1CC2(C(=O)Nc3cc(C(F)(F)F)cc(C(F)(F)F)c3)CC(O)CC2C1=O (stereo not given) | 30 to 300 nM |
| Cc1cccc(C)c1N1CC2(C(=O)Nc3cc(C(F)(F)F)cc(C(F)(F)F)c3)CC(F)(F)CC2C1=O (stereo not given) | ≤ 30 nM |
| Cc1cccc(N2CC(C(=O)Nc3cc(C(F)(F)F)cc(C(F)(F)F)c3)CC2=O)c1C (stereo not given) | 30 to 300 nM |

Next, values leading:

| IC50 | Structure (SMILES) |
| --- | --- |
| 30 to 300 nM | Cc1cccc(C)c1N1C[C@@](CN2CCC2)(C(=O)Nc2cc(C(F)(F)F)cc(C(F)(F)F)c2)[C@H](C)C1=O |
| 30 to 300 nM | Cc1cccc(C)c1N1CC(C(=O)Nc2cc(C#N)cc(C(F)(F)F)c2)CC1=O (stereo not given) |
| ≤ 30 nM | Cc1cccc(C)c1N1C[C@@](CN2CCCC2)(C(=O)Nc2cc(C#N)cc(C(F)(F)F)c2)[C@H](C)C1=O |
| ≤ 30 nM | CCN(CC)C[C@@]1(C(=O)Nc2cc(C#N)cc(C(F)(F)F)c2)CN(c2c(C)cccc2C)C(=O)[C@H]1C |
| 30 to 300 nM | Cc1cccc(C)c1N1C[C@@](CN(C)C(C)C)(C(=O)Nc2cc(C3CC3)cc(C(F)(F)F)c2)[C@H](C)C1=O |
| 30 to 300 nM | Cc1cccc(C)c1N1C[C@@](CN2CCOCC2)(C(=O)Nc2cc(C#N)cc(C(F)(F)F)c2)[C@H](C)C1=O |
| ≤ 30 nM | Cc1cccc(C)c1N1C[C@@](CN2CCCCC2)(C(=O)Nc2cc(C#N)cc(C(F)(F)F)c2)[C@H](C)C1=O |
| ≤ 30 nM | Cc1cccc(C)c1N1CC(CN2CCCC2)(C(=O)Nc2cc(C3CC3)cc(C(F)(F)F)c2)CC1=O (stereo not given) |
| 30 to 300 nM | Cc1cccc(C)c1N1C[C@@](CN2CCC(F)CC2)(C(=O)Nc2cc(C(F)(F)F)cc(C(F)(F)F)c2)[C@H](C)C1=O |
| 30 to 300 nM | Cc1cccc(C)c1N1CC(C(=O)Nc2cc(N3CCCCC3)cc(C(F)(F)F)c2)CC1=O (stereo not given) |
| 30 to 300 nM | Cc1cccc(C)c1N1C[C@@](CN2CCOCC2)(C(=O)Nc2cc(C3CC3)cc(C(F)(F)F)c2)[C@H](C)C1=O |
| ≤ 30 nM | CCN(C)C[C@@]1(C(=O)Nc2cc(C(F)(F)F)cc(C(F)(F)F)c2)CN(c2c(C)cccc2C)C(=O)[C@H]1C |
| 30 to 300 nM | Cc1cccc(C)c1N1C[C@@](CN2CCCCC2)(C(=O)Nc2cc(C3CC3)cc(C(F)(F)F)c2)[C@H](C)C1=O |
| 30 to 300 nM | CC[C@@]1(C(=O)Nc2ccc(C)c(C(F)(F)F)c2)CN(c2c(C)cccc2C)C(=O)[C@H]1C |
| 30 to 300 nM | CCN(C)C[C@@]1(C(=O)Nc2cc(C3CC3)cc(C(F)(F)F)c2)CN(c2c(C)cccc2C)C(=O)[C@H]1C |
| 30 to 300 nM | Cc1cccc(C)c1N1CC(C(=O)Nc2cc(N3CCCC3)cc(C(F)(F)F)c2)CC1=O (stereo not given) |
| ≤ 30 nM | Cc1cccc(C)c1N1C[C@@](CN(C)C)(C(=O)Nc2cc(C#N)cc(C(F)(F)F)c2)[C@H](C)C1=O |
| 30 to 300 nM | Cc1cccc(C)c1N1CC2(C(=O)Nc3cc(C(F)(F)F)cc(C(F)(F)F)c3)CCCCC2C1=O (stereo not given) |
| 30 to 300 nM | Cc1cccc(C)c1N1CC2(C(=O)Nc3cc(C(F)(F)F)cc(C(F)(F)F)c3)CC(N3CCCC3)CC2C1=O (stereo not given) |
| 30 to 300 nM | CC[C@@]1(C(=O)Nc2cc(Cl)cc(C#N)c2)CN(c2c(C)cccc2C)C(=O)[C@H]1C |
| ≤ 30 nM | Cc1cccc(C)c1N1CC(C(=O)Nc2cc(C(F)(F)F)cc(C(F)(F)F)c2)(N2CCCC2)CC1=O (stereo not given) |
| 30 to 300 nM | Cc1cccc(C)c1N1C[C@@](CN(C)C)(C(=O)Nc2cc(C3CC3)cc(C(F)(F)F)c2)[C@H](C)C1=O |
| ≤ 30 nM | CCN(CC)C[C@@]1(C(=O)Nc2cc(C3CC3)cc(C(F)(F)F)c2)CN(c2c(C)cccc2C)C(=O)[C@H]1C |
